In EP3037527A1, “Sialyltransferase without CMP-dependent sialidase activity” (F. Hoffmann-La Roche AG, priority 2014, dated 2016):

Key:
[1] = target: T1, α-2,6-sialyltransferase from rat liver (Rattus norvegicus, UniProt P13721); settings: each inhibitor tested at a concentration of 0.25 mM; cited from earlier work
T1 construct: host or cells: rat liver
T1 sequence (P13721 1-403): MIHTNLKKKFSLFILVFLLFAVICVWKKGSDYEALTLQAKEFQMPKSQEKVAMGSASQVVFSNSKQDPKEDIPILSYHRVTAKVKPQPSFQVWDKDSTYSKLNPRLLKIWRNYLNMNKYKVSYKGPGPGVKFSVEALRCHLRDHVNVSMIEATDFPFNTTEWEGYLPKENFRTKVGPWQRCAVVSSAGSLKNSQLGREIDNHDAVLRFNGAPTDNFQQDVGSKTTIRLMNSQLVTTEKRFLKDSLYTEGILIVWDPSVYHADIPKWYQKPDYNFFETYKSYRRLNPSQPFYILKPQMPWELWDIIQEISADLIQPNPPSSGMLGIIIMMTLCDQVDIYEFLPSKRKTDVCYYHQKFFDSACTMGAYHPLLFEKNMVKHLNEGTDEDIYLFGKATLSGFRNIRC

[2] = target: T2, Δ89 hST6Gal-I (Homo sapiens, UniProt P15907); assay: Inhibition of sialidase activity of Δ89 hST6Gal-I by CTP; format: biochemical
T2 construct: Erythropoietin signal peptide (Epo) (N, cleaved yes); AP spacer (two amino acids) (N, cleaved yes); made in house; host or cells: HEK 293 cells (transient expression, secreted)
T2 sequence (P15907 90-406): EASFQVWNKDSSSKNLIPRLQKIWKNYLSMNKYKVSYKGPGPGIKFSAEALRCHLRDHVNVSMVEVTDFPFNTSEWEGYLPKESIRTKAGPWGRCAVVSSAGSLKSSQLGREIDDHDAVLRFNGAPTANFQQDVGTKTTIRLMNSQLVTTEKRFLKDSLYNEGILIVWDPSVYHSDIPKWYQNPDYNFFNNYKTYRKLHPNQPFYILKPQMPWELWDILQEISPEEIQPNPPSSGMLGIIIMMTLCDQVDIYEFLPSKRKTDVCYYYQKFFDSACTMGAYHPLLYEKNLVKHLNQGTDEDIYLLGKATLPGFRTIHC
Description: A highly galactosylated humanized monoclonal antibody IgG4 MAB was used in sialylation experiments. The reaction mixture contained IgG4 MAB (300 µg in 55 µL 35 mM sodium actetate/Tris buffer pH 7.0), the donor substrate CMP-NANA (150 µg in 50 µL water) and sialyltransferase (30 µg Δ89 hST6Gal-I in 20 mM potassium phosphate, 0.1 M NaCl, pH 6.5). The samples were incubated at 37°C for a defined time. To stop the reaction the samples were frozen at -20°C. For mass analysis 100 µL denaturing buffer (6 M guanidinium chloride) and 30 µL TCEP (= tris(2-carboxyethyl)phosphine; 0.1 mM, diluted in denaturing buffer) were added to the samples and the samples were incubated at 37°C for 1 h. The samples were buffered in electrospray medium [20% ACN (= acetonitrile), 1% FA (= […])] using pre-equilibrated illustra™ Nap5-Columns (GE-Healthcare). Samples were analyzed by electrospray ionization mass spectrometry and the content of G2+0SA, G2+1SA and G2+2SA N-glycans was determined. A Micromass Q-Tof Ultima and a Synapt G2 HDMS device (Waters UK) were used, the software used was MassLynx V 4.1. […]
The compound cytidine-5'-triphosphate (CTP) is a known potent inhibitor of sialyltransferases (Scudder PR & Chantler EN BBA 660 (1981) 136-141). […] At different times samples were taken and the content of G2+0SA, G2+1SA and G2+2SA was determined by mass spectrometry. […]

Row | Compound | inhibition of α-2,6-sialyltransferase [1] [%] | degradation of G2+2SA caused by the sialidase activity ([2]; CTP 0.67 mM, compared to inhibitor-free conditions) | G2+2SA still present ([2]; after 72 h of incubation, CTP added after 7 h, final concentration 0.67 mM) [%]
1 | Nc1ccn([C@@H]2O[C@H](CO)[C@@H](O)[C@H]2OP(=O)(O)O)c(=O)n1 [2'-CMP] | 40 |  | 
2 | Nc1ccn([C@@H]2O[C@H](CO)[C@@H](OP(=O)(O)O)[C@H]2O)c(=O)n1 [3'-CMP] | 39 |  | 
3 | Nc1ccn([C@@H]2O[C@H](COP(=O)(O)O)[C@@H](O)[C@H]2O)c(=O)n1 [5'-CMP, Cytidine monophosphate] | 71 |  | 
4 | Nc1ccn([C@@H]2O[C@H](COP(=O)(O)OP(=O)(O)OP(=O)(O)O)[C@@H](O)[C@H]2O)c(=O)n1 [CTP, cytidine-5'-triphosphate] |  | significantly reduced | 73
5 | Nc1ccn([C@@H]2O[C@H](CO)[C@@H](O)[C@H]2O)c(=O)n1 [Cytidine] | 70 |  | 
